Consider 90 compounds from a melting point compilation (Tetko et al.; mined from patent text by program, amines drawn as free bases though some values may be those of a salt).

`CC(C)(C)OC(=O)N1CCN(CC(=O)N2CCC3(CC2)Cn2cc([N+](=O)[O-])nc2O3)CC1`: the melting point (commonly the temperature of the solid-liquid transition) was 211 to 213 °C.
Then `Cc1ccccc1C(=O)Nc1nc(-c2ccccc2)c(-c2ccc(=O)n(C(C)C)n2)s1`, with 221 to 222 °C; and `CSc1nn(C(=O)NC(C)(C)C)c(=O)n1N`, with 134 °C; and `C[C@@H]1Cc2ccsc2[C@H](C)N1CCNC(=O)c1cccs1` (relative stereo), with 111 to 113 °C.
For `CCCc1c(OCCC2Cc3cc(CC(=O)O)ccc3O2)ccc(C(C)=O)c1O` (stereo not given) the value was 118 to 126 °C; for `O=C1NC=C(C(=O)O)CN1`, 139 to 141 °C; for `[N-]=[N+]=Nc1nc(N=[N+]=[N-])c2ncn(COC(CO)CO)c2n1`, 174 to 180 °C.
For `CCn1nc(-c2ccc(OC)cc2)cc(C(=O)NC)c1=O` the value was 122 to 123 °C.
For `CC(O)c1ccc(CCNS(=O)(=O)c2ccccc2)cc1` (stereo not given), the melting point lay in the range of 98 to 100 °C.
Then `Cc1nc(-c2ccc(CN3C(=O)C4(COc5cc6c(cc54)CCO6)c4ccccc43)cc2)no1` (stereo not given), with 185 to 186 °C.
For the compound `Oc1ccc(Nc2nc(Cl)nc(NC3CCCCCC3)n2)cc1Cl`, the melting point is 91 °C.
For `COc1cc2c(Nc3ccc(Oc4ccccc4)cc3)c(C#N)cnc2cc1OCCCl` the value was 148 to 151 °C.
For `CCOC(=O)Cn1c(=O)c2ccccc2n(Cc2ccc(Cl)cc2)c1=O` the value was 138 to 139 °C.
`Cc1[nH]cc2c(=O)n(-c3ccc(Cl)cc3)nc-2c1-c1ccc(-c2cccnc2)cc1` returned a melting point of 308 to 309 °C.
As to `CC(O)CC(=O)NCCN` (stereo not given), the melting point was in the range of 71 to 73 °C.
For `CCCc1c(OCCCC(=O)O)ccc(C(C)=O)c1O` the value was 130 to 133 °C; for `C[C@H]1[C@H](NC(=O)OC(C)(C)C)C(=O)N1OCC(=O)OCc1ccc([N+](=O)[O-])cc1`, 71 to 75 °C; for `O=S(Cc1ccccc1)c1ncc(Cl)cn1` (stereo not given), 92 °C.
Then `CC(C)OCC(O)CN1CCC2(CC1)CSC1=C(O2)c2ccccc2C(=O)C1=O` (stereo not given), with 97 to 99 °C; and `C[C@H](NC(=O)C[C@](O)(CC(C)(C)O)c1ccccc1)c1ccc(Br)cc1`, with 150 to 152 °C; and `CCOP(=O)(/C=C/c1cn(-c2ccccc2)nc1OCc1ccc(OCc2coc(-c3ccco3)n2)c(OC)c1)OCC`, with 96 to 97 °C.
Then `Fc1ccc(Oc2nccc(-c3c(-c4ccc(F)cc4)ncn3C3CCNCC3)n2)cc1`, with 186 to 187 °C.
The compound `CC(=O)c1ccc2c(c1)CCC(=O)CO2` gave a melting point of 80 to 82 °C.
For `CC1(C)Cc2cccc(S(N)(=O)=O)c2O1` the value was 160 to 162 °C; for `Nc1cccc(CNC(=O)C2Cc3ccccc3N2S(=O)(=O)c2ccc(-c3cccc(C(F)(F)F)c3)cc2)c1` (stereo not given), 82 °C.
As to `CN(c1ccc(Cl)cc1)S(=O)(=O)c1c[nH]cn1`, the melting point is 217 to 219 °C.
Compound `O=C(Nc1cn(C2CCCCO2)nc1C(=O)NCCNc1ccccc1)c1ccccn1` (stereo not given) registered a melting point of 182 to 183 °C.
`O=C1N[C@H](Cc2cccc(OC(F)(F)C(F)F)c2)[C@H](c2cccc(F)n2)O1` (racemic) returned a melting point of 118 to 119 °C.
Take `NC(=S)Nc1ccc(F)cc1-c1ccccc1`: the melting point fell in the range of 188 to 190 °C.
Then `CCCC(=O)Nc1ccc2c(c1)C(=O)c1cc(NC(=O)CCC)ccc1C2=O`, with 275 °C.
For `CC1(C(=O)NCC(=O)O)CC1(Cl)Cl` (stereo not given) the value was 139 to 140 °C.
Regarding `COc1ccc(C(=O)Nc2ccc(-n3nc(C(F)(F)F)cc3C(F)(F)F)cc2)cc1`, the melting point is 205 to 207 °C.
Take `CCc1c(Oc2cnc(N)nc2N)cc(Br)c2c1OCCO2`: the melting point is 291 to 293 °C.
`O=C(O)CCC(=NO)c1ccc2c3c(oc2c1)CCCC3` gave a melting point of 148 to 150 °C.
Compound `O=C(O)c1nc2cc(N3CCN(c4ccc(F)cc4)CC3)c([N+](=O)[O-])cc2[nH]c1=O` showed a melting point of 236 to 238 °C.
For `Cc1sc2ccc(Cl)cc2c1C1=NCCO1` the value was 100 to 102 °C; for `OCC1C=CC(n2cnc3c(O)ncnc32)O1` (stereo not given), above 310 °C.
Then `C=C(c1ccccc1)c1ccc(N(C)C)cc1`, with 51 to 52 °C; and `O=c1oc2cc(O)c(O)cc2c2c1CN(CCN1CCOCC1)CC2`, with 299 to 302 °C.
Compound `Cn1nc(-c2ccccc2)cc1C(=O)Nc1ccc(OCC(C)(C)C)c(C#N)c1` gave a melting point of 223 to 224 °C.
Then `CC(C)N1CNS(=O)(=O)c2sc(Cl)cc21`, with 100 to 102 °C; and `Cc1n[nH]c2ccc(C3C(C#N)=C(C(F)F)NC(C(F)F)=C3C#N)cc12`, with 289 °C.
With `O=C(c1ccc(Cn2ccc3ccccc32)cc1)N1CCC(N2CCCC2)C1` (stereo not given), the melting point is 141 to 153 °C.
For `O=C(O)c1ccc(OCCOc2ccccc2)cc1O` the value was 114 to 116 °C; for `CCCCc1nc2cccc(C=O)c2n1Cc1ccccc1Cl`, 114 to 115 °C.
For `CN(CCSc1ccc2ncc([N+](=O)[O-])n2n1)c1ccnc(CO)c1Cl` the value was 189 to 191 °C; for `O=C1OC2CCC1CC2`, 125 to 126 °C; for `O=C(O)[C@H](Cc1ccccc1)NC(=S)Cc1ccccc1`, 63 to 65 °C.
As to `Cc1cn(-c2nc(C3=Nc4ccc(-c5ccc(F)cc5)cc4NC(=O)C3)cs2)cn1`, the melting point is 229 °C.
For `CC(C)C[C@@H](C(=O)O)N(C)Cc1ccc(C(C)(C)C)cc1` the value was 110 to 112 °C; for `CN(C)c1ccc2c(c1Br)C(=O)C1(CC1)O2`, 79 to 81 °C; for `COc1ccc2c(c1OC)CCC2c1c[nH]cn1` (stereo not given), 156 to 158 °C.
For `S=C1CNc2ccccc2CN1` the value was 150 to 153 °C; for `Cn1cccc1-c1nc2cc(N)ccc2o1`, 183 to 185 °C.
As for `O=C(O)CCc1cc2nc(Cl)ccc2n1S(=O)(=O)c1cccc2ccccc12`, the melting point was found to be 93 °C.
With `Nc1cc(/C=C/c2cc(/C=C/c3ccc4cc[nH]c4c3)[nH]n2)ccc1O`, the melting point lay in the range of 123 to 126 °C.
Turning to `Cc1cc(SCc2cnc(-c3ccc(C(F)(F)F)cc3)nc2C2CC2)ccc1OC(C)(C)C(=O)O`, the melting point lay in the range of 129 to 131 °C.
For `CN1[C@@H]2CC[C@H]1[C@H](CO)[C@H](c1ccc(Cl)c(Cl)c1)C2` the value was 81 to 86 °C; for `CCC1C2C(C(=O)N1Cc1ccc3c(c1)OCO3)C(c1ccc(C#N)cc1)N1CCCC21` (stereo not given), 150 to 151 °C.
The compound `CC1(C)C=NC(CC(=O)O)(NC(c2ccccc2)(c2ccccc2)c2ccccc2)S1` (stereo not given) yielded a melting point of 180 to 182 °C.
Regarding `O=C1c2cc3nnn(Cc4nc5ccccc5s4)c(=O)c3cc2OC2CCCN12` (stereo not given), the melting point lay in the range of 224 to 227 °C.
Take `Cc1cc(C)c(S(=O)(=O)NC(COc2ccccc2)C(F)(F)F)c(C)c1` (stereo not given): the melting point is 89 to 91 °C.
Regarding `Cn1cc(C(F)(F)F)c(CS(=O)(=O)C2=NOC(C)(C)C2)n1`, the melting point was in the range of 125 to 126 °C.
Then `Cc1cc2cc(N(C(=O)Nc3ccc(F)cc3F)c3ccccc3Cl)c(=O)oc2cc1C`, with 212 to 214 °C; and `CCCc1nnc(N2CCN(c3ccc(N4CC(CNC(C)=O)OC4=O)cc3F)CC2)s1` (stereo not given), with 208 to 209 °C; and `Nc1ccc(S(=O)(=O)Nc2cc(N)cc(N)c2)cc1`, with 188 to 190 °C.
For `CC(C)(C)NC(=O)C1CCC2C3CNC4=CC(=O)CCC4(C)C3CCC12C` (stereo not given) the value was 186 to 189 °C.
For `COC(=O)C1=CCC(=NON)C=C1` the value was 170 to 172 °C; for `Cc1cccc(C)c1N(CC(=O)NCC(=O)O)C(=O)c1ccc(Cl)cc1`, 200 to 201 °C; for `CC(C)(C)OC(=O)N1C(=O)C2(COc3cc4c(cc32)OCCO4)c2ccccc21` (stereo not given), 171 to 172 °C.
`CCOC(=O)c1cc(I)c(F)c(F)c1F` gave a melting point of 33 to 34 °C.
Regarding `Cn1cnc2c(Nc3ccc(Cl)cc3)nc(-c3ccccn3)nc21`, the melting point fell in the range of 185 to 190 °C.
For `O=C(O)c1ccc(-c2ccc(-c3ccc(C(F)(F)F)cc3)s2)cc1`, the melting point fell in the range of 284 to 285 °C.
For `Brc1ccc2c(c1)COCc1cc(Br)ccc1-2` the value was 129 to 131 °C.
Then `Cc1ccc(-c2c(F)c(F)c3c(=O)c(C(=O)O)cn(C4CC4)c3c2F)c(C)n1`, with 264 to 266 °C.
For `COc1cc2c(cc1OC)N(C)C(=O)CN=C2c1cncc2ccccc12` the value was 131 to 135 °C; for `c1ccc(Nc2ncnc3cnccc23)cc1`, 161 °C; for `O=C(Cc1ccccc1)Cc1ccc(Cl)c(Cl)c1`, 131 to 133 °C.
`O=Cc1cc(-c2ccccc2F)n(S(=O)(=O)c2cccnc2)c1` showed a melting point of 106 to 108 °C.
For `COc1cccc(C2CCCN(C(=O)N(C)O)C2)c1` (stereo not given) the value was 96 to 98 °C; for `COc1c2ccccc2c(-c2cc(Br)c(O[C@H](Cc3ccccc3)C(=O)O)c(Br)c2)c2c1sc1ccccc12`, 102 to 110 °C; for `O=C(O)c1ccc(CC2COc3ccc(OCc4ccc5ccccc5n4)cc3C2O)cc1` (stereo not given), 199 to 201 °C.
For `Cc1nc2c(N)nc3c(c2n1CC(C)C)CCNC3` the value was 226 to 230 °C; for `Cc1cc(C)c(Oc2nc(C)nc(Cl)c2Cl)c(C)c1`, 68 to 70 °C.
As to `COc1ccc(Cl)c(S(=O)(=O)NC(=O)c2nc3c(Cl)cc(C(F)(F)F)cn3c2C)c1`, the melting point is 222 to 223 °C.
Then `CC(C)C(C)(C)C(O)(COc1ccc(Cl)cc1)Cn1cncn1` (stereo not given), with 59 to 60 °C; and `Cc1ncn(-c2cc(F)ccc2CNC(=O)c2nc3n(c(=O)c2OCc2ccccc2)CCOC3(C)C)n1`, with 203 °C; and `CCOC(=O)CCCNC(=O)c1n[nH]cc1NC(=O)c1ccccn1`, with 179 to 180 °C.
For `Cc1c(C(=O)O)nn(-c2ccc(Cl)cc2Cl)c1-c1ccc(Cl)cc1` the value was 211 °C.
Then `CC(c1ccc(NC=O)cc1)n1ccnc1` (stereo not given), with 129 °C.
